Assay results as given in patent publication US8066971B2, “Targeting pulmonary epithelium using ADRP” (Los Angeles Biomedical Reseach Institute at Harbor UCLA …, priority 2005, dated 2011).
“Also recorded” adds a separate entry of the source. Starred links: 1 amine or outer side, 2 acyl side, 3 side chain; linkers in the order of their positions; H or OH if unused. Positions of bridges follow the written chain, without caps; N, C: chain ends. Non-standard residues stand in square brackets, D forms with d. Residues, ends and D or L forms follow the SMILES beside them. Chains are numbered I, II in the order given. Actinocin(9to1) = Cc1c2oc3c(C)ccc(C(=O)[*:1])c3nc-2c(C(=O)[*:2])c(N)c1=O; NMeV = CN[C@H](C(=O)O)C(C)C; Sar = CNCC(=O)O

Assays:
[1] = test system: SP-B mRNA expression by A549 cells; assay: SP-B mRNA expression by A549 cells (RT-PCR); assay type: cell-based; conditions: actinomycin D 1 μg/ml, concomitant incubation with LDs
Method: (§1) Monolayer cultures of A549 cells were incubated with ADRP-LDs labeled with either tritium or GFP as follows: ^3H-labeled (10,000 dpm/min/20 μg triacylglycerol) ADRP-LDs were isolated from fetal rat lung fibroblasts, as described above. Where indicated, incubations were carried out in the presence of either actinomycin D or cyclohexamide to determine if de novo mRNA or protein synthesis, respectively, was involved in LD processing. Elsewhere, incubations were conducted in the presence of ADRP antibody (rabbit anti-ADRP IgG kindly provided by Dr. Constantine Londos, NIDDK) to determine the specificity of the ADRP effect on LD uptake. At the end of the incubation, the cells were processed for ^3H-satPC (Floros et al. (1987) J Biol Chem. 262(28): 13592-13598), expression of SP-B by RT-PCR and Western Blot (Rehan et al. (2002) Mol Genet Metab. 76(1): 46-56), or for confocal microscopy (see below for method).
(§2) Western blot and RT-PCR for SP-B were performed as described by Rehan et al. (2002) Mol Genet Metab. 76(1): 46-56.

[2] = test system: SP-B protein levels in A549 cells; assay: SP-B protein levels in A549 cells (Western blot); assay type: cell-based; conditions: cycloheximide 5 :g/ml, concomitant with ADRP-LDs
Method: as §1, §2

## Cc1c2oc3c(C)ccc(C(=O)N[C@@H]4C(=O)N[C@H](C(C)C)C(=O)N5CCC[C@H]5C(=O)N(C)CC(=O)N(C)[C@@H](C(C)C)C(=O)O[C@@H]4C)c3nc-2c(C(=O)N[C@@H]2C(=O)N[C@H](C(C)C)C(=O)N3CCC[C@H]3C(=O)N(C)CC(=O)N(C)[C@@H](C(C)C)C(=O)O[C@@H]2C)c(N)c1=O [Actinomycin D] (I: T[dV]P[Sar][NMeV] / II: T[dV]P[Sar][NMeV]; ester I:1-I:C, II:1-II:C; linker I:N-II:N via Actinocin(9to1))
[1]
  effect on ADRP induction of SP-B mRNA expression: blocked

## C[C@@H]1C[C@@H]([C@H](O)CC2CC(=O)NC(=O)C2)C(=O)[C@@H](C)C1 [cycloheximide]
[2]
  effect on ADRP-LD-stimulated SP-B protein increase: blocked; also recorded: inhibited
